Results published in patent US9527834B2, “Substituted 1-benzylquinoxalin-2(1H)-one analogs as positive allosteric modulators of muscarinic acetylcholine receptor M1” (Vanderbilt University, priority 2013, dated 2016).

Biological target: T1, mAChR M1 (Homo sapiens, UniProt P11229)
T1 construct: expressed in transfected cells; host or cells: CHO-K1
T1 sequence (P11229 1-460): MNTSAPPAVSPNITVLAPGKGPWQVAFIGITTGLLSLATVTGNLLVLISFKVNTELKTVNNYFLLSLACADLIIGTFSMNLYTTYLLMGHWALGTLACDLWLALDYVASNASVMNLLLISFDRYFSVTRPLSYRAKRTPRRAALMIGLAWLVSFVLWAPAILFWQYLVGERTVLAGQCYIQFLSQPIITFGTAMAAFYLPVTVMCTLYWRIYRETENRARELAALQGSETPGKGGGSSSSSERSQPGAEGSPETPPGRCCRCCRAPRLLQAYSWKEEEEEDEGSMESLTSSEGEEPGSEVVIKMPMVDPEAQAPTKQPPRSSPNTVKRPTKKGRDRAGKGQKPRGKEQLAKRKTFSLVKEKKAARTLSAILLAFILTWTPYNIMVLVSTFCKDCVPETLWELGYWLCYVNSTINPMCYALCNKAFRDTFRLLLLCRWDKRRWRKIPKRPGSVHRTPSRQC
Assay: mAChR M1 cell-based functional assay (calcium mobilization, potentiation of EC20 acetylcholine response)
Settings: mAChR M1-expressing CHO-K1 cells; calcium flux; >10 μM estimated for low potency (no plateau) with >20% increase in ACh response
From the text: Chinese hamster ovary (CHO-K1) cells stably expressing rat (r)M1 were purchased from the American Type Culture Collection and cultured according to their indicated protocol. CHO cells stably expressing human (h)M2, hM3, and hM5 were described previously (Levey, A. I., et al., J Neurosci. 1991, 11, 3218-3226.); hM1 and hM4 cDNAs were purchased from Missouri S&T cDNA Resource; rM4 cDNA was provided by T. I. Bonner (National Institutes of Health, Bethesda, Md.). rM2 and rM3 were cloned from a rat brain cDNA library and sequence verified. hM1, rM2, rM3, hM4, and rM4 cDNAs were used to stably transfect CHO-K1 cells purchased from the American Type Culture Collection using Lipofectamine2000. […]
Calcium flux was measured using the Functional Drug Screening System (FDSS) 6000 (Hamamatsu Corporation, Tokyo, Japan) as an increase in the fluorescent static ratio. […] Agonist activity was analyzed as a concentration-dependent increase in calcium mobilization upon compound addition. Positive allosteric modulator activity was analyzed as a concentration-dependent increase in the EC20 acetylcholine response. Antagonist activity was analyzed as a concentration-dependent decrease in the EC80 acetylcholine response. […]

EC50 | SMILES
3.45 µM | Cn1cc2c(-c3cc(F)c(Cn4c(=O)cnc5ccccc54)c(F)c3)cccc2n1 [Compound B1, 1-(2,6-difluoro-4-(2-methyl-2H-indazol-4-yl)benzyl)quinoxalin-2(1H)-one]
> 10 µM | Cn1cc(-c2ccc(Cn3c(=O)cnc4ccccc43)cc2)cn1 [Compound B2]
